Several values for one entry are separate records, joined by “and”; a condition that tells them apart may be missing. Identical values can stand only once.

Experiment [1] deals with INR. As to the kind of experiment: Fit of dose-response equation (4)/(5) for Vitamin K intake to INR of anti-coagulated patients (published data). The class given is in vivo. The text has this:
More specifically, the reciprocal of INR will be dose-responsive to Vitamin K in the normal manner, as discussed above, so that Logit (1/INR) will be linear in log (K), where K is the effective total intake of Vitamin K in μg/day. Data on the total intake of Vitamin K are very rarely available in the clinic, but it is practicable to investigate departures from the usual amount when occasion arises, such as when a supplement of Vitamin K is prescribed. Therefore log (K) is expressed as the sum of two terms: log (K)=log (K0)+log (K/K0), where K0 is the average daily intake of Vitamin K.
The dose-response curve described here includes the effect of exogenous Vitamin K by considering the parameter a in equation (1) to be the sum of two terms, a=a′+c log (K0), where a′ is another constant and c is a patient-specific parameter, and by adding a term for the effect of departures from K0. Thus, it follows that Log (INR−1)=bw−a−c log (K/K0) (4) […]
The parameters of this dose-response curve for Vitamin K are derived primarily from published data based on use of synthetic Vitamin K tablets. In such published studies, the average daily intake of Vitamin K was measured in the diet of the subjects at 55 μg. […] The dose was increased each Monday before INR was measured; thus, the INR for Tuesday was one day after increase, etc.

The subject of experiment [2] is INR.
Excerpt: To simplify, a=y log (PCAo)−x, which expresses the fixed contribution of the patient's own clotting factor system; this will result in equation (1) Log (INR−1)=bw−a (1)
Consequently, the patient-specific parameters are now a and b. […] In the absence of further information, a is assumed to be a constant characteristic of the patient, but as will be shown below, also includes the effects of the intake of Vitamin K on the patient's INR, whose effects can be represented by adding another term (see below). It should be pointed out that Equation (1) is a proposition, not a definition, because it specifies what value of the INR will be observed, given values for a, b and w. Furthermore, it should be appreciated that the value predicted for a particular patient thus depends only on w regardless of when in the treatment sequence it occurred. […] These two parameters relating INR to effective dose w can be seen as the scale factor for the dose a and the steepness of the dose response b.
In the present invention, an empirical approximation is used to predict the time course of the patient's response to a change in a dose. […] In the case of a patient taking the same dose for an extended time, the “effective dose” equals that regular dose after the stabilization time. The “effective dose” only needs to be calculated when there is a change in dosage and during the stabilization period.
The “effective dose” is calculated by convolving the actual dose with a function of time since the dose was taken. This function represents the effect of a single dose on the INR through time. […] It is assumed that the weighting for a dose taken just once is a triangular function with a slope of k from the time the dose is taken to the time of its maximum effect on INR, followed by a tailing off with a slope of −k. The resulting function for a maintained daily dose is an S-shaped growth function, consisting of two quarter-parabolae, depicted in FIG. 5. […] Here, the half-maximal delay is one unit of time at which the dose has half its maximum effect. When the patient stops taking the drug, the decay is reversed.
The “optimum” dose is the dose expected to yield an INR at the mid-point of the therapeutic range. The effective doses were calculated using a half-maximal delay of 6.4, 6.4 and 9.0 days respectively.
The parameter tmax½ used for this convolution is the time to attain the half-maximal effect for a maintained dose, which is also the time to attain the maximum effect of a single dose.
Setting [3] is: patients studied, all taking warfarin, w = daily dosage in milligrams, natural log.

As for `CC1=C(C/C=C(\C)CCC[C@H](C)CCC[C@H](C)CCCC(C)C)C(=O)c2ccccc2C1=O` [Vitamin K1], the half-time to stabilization result in experiment [1] (effect on INR of effective total daily intake) is listed as “about 1.6 days”.
Take `CC(=O)CC(c1ccccc1)c1c(O)c2ccccc2oc1=O` (centres unmarked) [warfarin]: in experiment [2] (constant dose), the “time until the INR has stabilized on a constant dose” value was 13 days and 14 days. Besides, in experiment [2] (setting [3]), the “mean value of a in equation (1), Log (INR-1)=bw-a” value is “about 2.8” and the “mean value of b in equation (1) (sensitivity, slope of the dose-response curve)” value is reported as “about 0.54”.
Consider Vitamin K, for which the “average value of patient-specific parameter c in equation (5)” value in experiment [1] (derived from the literature data, K in μg/day, natural log) is given as 0.43.
